The record followed here is ChEMBL document CHEMBL1759971, “Substituted phenyl triazoles as selective inhibitors of 11β-Hydroxysteroid Dehydrogenase Type 1” (Bioorg Med Chem Lett, 2011).

The structures appear in SMILES notation.

Series [1] deals with Mus musculus. The series is described as follows: Inhibition of 11beta-HSD1 in ICR mouse assessed as conversion of [3H]cortisone to [3H]cortisol at 10 mg/kg, po after 4 hrs by scintillation counting. The format is functional.
The target of series [2] is T1, Nuclear receptor subfamily 1 group I member 2 (Homo sapiens, UniProt O75469).
T1 sequence (O75469 whole entry): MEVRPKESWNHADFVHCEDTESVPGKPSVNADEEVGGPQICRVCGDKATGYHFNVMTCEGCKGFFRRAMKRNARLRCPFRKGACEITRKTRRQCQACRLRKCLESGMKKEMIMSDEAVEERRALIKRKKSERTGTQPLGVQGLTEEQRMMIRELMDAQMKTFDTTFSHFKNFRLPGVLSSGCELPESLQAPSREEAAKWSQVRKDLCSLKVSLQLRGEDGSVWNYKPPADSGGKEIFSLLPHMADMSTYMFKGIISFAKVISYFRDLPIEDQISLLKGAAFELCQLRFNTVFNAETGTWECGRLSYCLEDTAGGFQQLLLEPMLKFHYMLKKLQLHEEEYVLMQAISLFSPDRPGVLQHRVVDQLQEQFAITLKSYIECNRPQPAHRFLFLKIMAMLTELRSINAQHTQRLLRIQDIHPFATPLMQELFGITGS
Briefly: Agonist activity at PXR. The format is functional.

Series [3] concerns the target T1, Nuclear receptor subfamily 1 group I member 2. Briefly: Agonist activity at PXR at 10 uM. The format is functional.
Series [4] concerns the target 11-beta-hydroxysteroid dehydrogenase 1 (Homo sapiens, UniProt P28845). Briefly: Inhibition of human 11beta-HSD1 expressed in CHO-K1 cells assessed as conversion of [3H]cortisone to [3H]cortisol by scintillation counting. The series is classed as cell-based.
Series [5] addresses 11-beta-hydroxysteroid dehydrogenase 1 (Mus musculus, UniProt P50172). The series is described as follows: Inhibition of mouse 11beta-HSD1 expressed in CHO-K1 cells assessed as conversion of [3H]cortisone to [3H]cortisol by scintillation counting. The format is cell-based.
Series [6] concerns Mus musculus. The series is described as follows: Inhibition of 11beta-HSD1 in ICR mouse assessed as conversion of [3H]cortisone to [3H]cortisol at 10 mg/kg, po after 16 hrs by scintillation counting. The format is functional.
In series [7] the target is T2, 11-beta-hydroxysteroid dehydrogenase type 2 (Homo sapiens, UniProt P80365).
T2 sequence (P80365 whole entry): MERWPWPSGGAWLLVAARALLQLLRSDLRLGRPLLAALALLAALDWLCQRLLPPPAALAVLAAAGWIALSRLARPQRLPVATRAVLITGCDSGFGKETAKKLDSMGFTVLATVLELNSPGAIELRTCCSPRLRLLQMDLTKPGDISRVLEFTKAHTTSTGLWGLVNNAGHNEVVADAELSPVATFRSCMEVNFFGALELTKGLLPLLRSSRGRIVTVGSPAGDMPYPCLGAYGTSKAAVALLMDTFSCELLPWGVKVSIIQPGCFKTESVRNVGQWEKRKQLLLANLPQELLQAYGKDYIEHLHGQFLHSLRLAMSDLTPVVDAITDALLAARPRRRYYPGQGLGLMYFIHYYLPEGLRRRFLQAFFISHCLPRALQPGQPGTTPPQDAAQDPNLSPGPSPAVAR
The series is described as follows: Inhibition of human 11beta-HSD2.

Series [8] concerns the target T3, 11-beta-hydroxysteroid dehydrogenase type 2 (Mus musculus, UniProt P51661).
T3 sequence (P51661 whole entry): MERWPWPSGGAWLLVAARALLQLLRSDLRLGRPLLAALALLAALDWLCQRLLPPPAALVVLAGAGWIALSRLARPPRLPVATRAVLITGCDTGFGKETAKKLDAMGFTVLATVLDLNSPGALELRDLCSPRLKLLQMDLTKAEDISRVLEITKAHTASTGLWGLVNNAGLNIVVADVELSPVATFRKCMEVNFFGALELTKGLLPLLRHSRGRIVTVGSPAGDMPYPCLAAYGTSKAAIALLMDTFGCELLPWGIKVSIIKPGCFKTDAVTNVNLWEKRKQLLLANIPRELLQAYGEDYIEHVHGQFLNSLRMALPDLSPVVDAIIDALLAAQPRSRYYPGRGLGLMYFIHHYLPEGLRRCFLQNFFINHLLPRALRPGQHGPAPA
Briefly: Inhibition of mouse 11beta-HSD2.

Chain of 11-beta-hydroxysteroid dehydrogenase 1 (Homo sapiens, UniProt P28845) (P28845 whole entry): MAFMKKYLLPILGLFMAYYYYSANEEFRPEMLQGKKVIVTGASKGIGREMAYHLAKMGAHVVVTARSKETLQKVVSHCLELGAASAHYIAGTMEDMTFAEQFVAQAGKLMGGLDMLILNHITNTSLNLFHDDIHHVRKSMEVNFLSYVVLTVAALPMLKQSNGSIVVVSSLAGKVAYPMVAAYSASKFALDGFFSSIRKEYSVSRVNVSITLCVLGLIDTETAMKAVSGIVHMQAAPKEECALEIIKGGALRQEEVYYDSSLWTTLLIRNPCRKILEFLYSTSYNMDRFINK
Chain of 11-beta-hydroxysteroid dehydrogenase 1 (Mus musculus, UniProt P50172) (P50172 whole entry): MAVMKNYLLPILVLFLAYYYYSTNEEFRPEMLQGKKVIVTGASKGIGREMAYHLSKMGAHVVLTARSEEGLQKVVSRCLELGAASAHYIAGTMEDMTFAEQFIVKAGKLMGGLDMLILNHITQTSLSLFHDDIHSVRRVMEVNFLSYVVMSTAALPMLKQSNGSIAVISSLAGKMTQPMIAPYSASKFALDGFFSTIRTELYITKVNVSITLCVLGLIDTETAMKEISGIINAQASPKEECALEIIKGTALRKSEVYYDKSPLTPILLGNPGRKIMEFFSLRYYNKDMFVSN

Consider `Cn1c(-c2ccc(NC(=O)c3cccs3)cc2)nnc1C1(c2ccc(Cl)cc2)CCC1`, for which the inhibition in vivo at 10 mg/kg with Mus musculus [1] came to 63%; in the series with Mus musculus [6] it was 2%. Further, in series [2], the EC50 amounted to 8700 nM. In addition, the Activity in series [3] is reported as 55%. The IC50 is 8.7 nM in series [4], 1 nM in series [5], more than 4000 nM in series [7] and more than 4000 nM in series [8].
For `Cc1cc(C(=O)Nc2ccc(-c3nnc(C4(c5ccc(Cl)cc5)CCC4)n3C)cc2)c(C)o1`, the inhibition in vivo at 10 mg/kg was 91% in the series on Mus musculus [1] and 81% in the series on Mus musculus [6]. Further, the EC50 in series [2] is more than 30000 nM. For the same compound, the Activity in series [3] came out at 18%. Also, the IC50 in series [4] is 9.5 nM; in series [5], less than 1 nM; in series [7] it was more than 4000 nM; in series [8], more than 4000 nM.
On to `Cn1c(-c2ccc(NC(=O)c3ccno3)cc2)nnc1C1(c2ccc(Cl)cc2)CCC1`, for which the inhibition in vivo at 10 mg/kg in the series on Mus musculus [1] worked out at 69%; with Mus musculus [6] it was 11%. The compound further gave an EC50 in series [2] of more than 30000 nM. Moreover, the Activity in series [3] worked out at 21%. Further, the half-inhibitory concentration (IC50) is 8 nM in series [4], 2.8 nM in series [5], more than 4000 nM in series [7] and more than 4000 nM in series [8].
`CC(=O)Nc1ccc(-c2nnc(C3(c4ccc(Cl)cc4)CCC3)n2C)c(Cl)c1`: the inhibition in vivo at 10 mg/kg with Mus musculus [1] was 79%; in the series with Mus musculus [6], 27%. Besides, in series [2], the EC50 was more than 30000 nM. Besides, in series [3], the Activity is 34%. Besides, the IC50 in series [4] is less than 1 nM; in series [5], less than 1 nM; in series [7], more than 4000 nM; in series [8], more than 4000 nM.
`Cn1c(-c2ccc(NC(=O)c3cnccn3)cc2Cl)nnc1C1(c2ccc(Cl)cc2)CCC1`: the figures for the inhibition in vivo at 10 mg/kg in the series on Mus musculus [1] and with Mus musculus [6] were 82% and 46%, respectively. The compound further came in with an EC50 in series [2] of more than 30000 nM. Besides, the Activity in series [3] is given as 33%. Besides, the IC50 in series [4] was 2.6 nM; in series [5], 1.9 nM; in series [7] it was more than 4000 nM; in series [8], more than 4000 nM.
Take `Cn1c(-c2ccc(-c3cncnc3)cc2)nnc1C1(c2ccc(Cl)cc2)CCC1`: the inhibition in vivo at 10 mg/kg in the series on Mus musculus [1] is 46%; in the series on Mus musculus [6], -4%. This compound also gave an EC50 in series [2] of more than 30000 nM. Also, the Activity in series [3] stood at 7%. For the same compound, the IC50 in series [4] was 1.5 nM; in series [5], 2.6 nM; in series [7], more than 4000 nM; in series [8], more than 4000 nM.
With `Cn1c(-c2ccc(-c3cnc(N)nc3)cc2)nnc1C1(c2ccc(Cl)cc2)CCC1`, the inhibition in vivo at 10 mg/kg is 34% in the series on Mus musculus [1] and -5% in the series on Mus musculus [6]. The EC50 in series [2] was more than 30000 nM. Further, the Activity in series [3] is 3%. Also, the IC50 is 2.2 nM in series [4], 2.2 nM in series [5], more than 4000 nM in series [7] and more than 4000 nM in series [8].
As to `COc1ncc(-c2ccc(-c3nnc(C4(c5ccc(Cl)cc5)CCC4)n3C)cc2)c(OC)n1`, the values for the inhibition in vivo at 10 mg/kg in the series with Mus musculus [1] and in the series with Mus musculus [6] were 59% and 10%, respectively. The compound further registered an EC50 in series [2] of more than 30000 nM. Further, the Activity in series [3] is on record as 35%. In addition, the IC50 is 14 nM in series [4], 2 nM in series [5], more than 4000 nM in series [7] and more than 4000 nM in series [8].
Turning to `Cn1c(-c2ccc(-c3cc(=O)[nH]cn3)cc2)nnc1C1(c2ccc(Cl)cc2)CCC1`, the values for the inhibition in vivo at 10 mg/kg with Mus musculus [1] and with Mus musculus [6] were 26% and 14%, respectively. This compound displayed an EC50 in series [2] of more than 30000 nM. In series [3], the Activity worked out at 15%. Besides, the IC50 in series [4] is 8.8 nM; in series [5], 2.8 nM; in series [7] it was more than 4000 nM; in series [8] it was more than 4000 nM.
Turning to `Cn1c(-c2ccc(-c3ccc(Cl)nn3)cc2)nnc1C1(c2ccc(Cl)cc2)CCC1`, the figures for the inhibition in vivo at 10 mg/kg in the series with Mus musculus [1] and in the series on Mus musculus [6] were 40% and -7%, respectively. The same compound gave an EC50 in series [2] of more than 30000 nM. Further, the Activity in series [3] is on record as 14%. The IC50 is 1.5 nM in series [4], 1.5 nM in series [5], more than 4000 nM in series [7] and more than 4000 nM in series [8].
As to `Cc1noc(C)c1-c1ccc(-c2nnc(C3(c4ccc(Cl)cc4)CCC3)n2C)cc1`, the inhibition in vivo at 10 mg/kg with Mus musculus [1] came out at 63%; in the series with Mus musculus [6], 9%. Also, the concentration for a half-maximal effect (EC50) in series [2] is more than 30000 nM. In addition, in series [3], the Activity is recorded as 26%. The IC50 in series [4] was 4.8 nM; in series [5] it was 3.4 nM; in series [7] it was more than 4000 nM; in series [8] it was more than 4000 nM.
As to `Cn1c(-c2ccc(-c3ccon3)cc2)nnc1C1(c2ccc(Cl)cc2)CCC1`, the inhibition in vivo at 10 mg/kg in the series with Mus musculus [1] was 95%; in the series with Mus musculus [6], 67%. The compound also had an EC50 in series [2] of more than 30000 nM. The Activity in series [3] was found to be 35%. In addition, the IC50 in series [4] was 11 nM; in series [5] it was 6 nM; in series [7], more than 4000 nM; in series [8] it was more than 4000 nM.
As for `Cn1c(-c2ccc(-c3cccnc3)cc2F)nnc1C1(c2ccc(Cl)cc2)CCC1`, the inhibition in vivo at 10 mg/kg turned out to be 86% in the series with Mus musculus [1] and 15% in the series on Mus musculus [6]. The EC50 in series [2] was more than 30000 nM. Besides, the Activity in series [3] was 43%. Also, the IC50 was 1.8 nM in series [4], 1.6 nM in series [5], more than 4000 nM in series [7] and more than 4000 nM in series [8].
`COc1cc(-c2cccnc2)ccc1-c1nnc(C2(c3ccc(Cl)cc3)CCC2)n1C`: the inhibition in vivo at 10 mg/kg came out at 82% in the series on Mus musculus [1] and 21% in the series with Mus musculus [6]. In series [2], this compound yielded an EC50 of 4600 nM. Also, the Activity in series [3] is 65%. Also, the IC50 in series [4] is 1.5 nM; in series [5], 0.75 nM; in series [7], more than 4000 nM; in series [8], more than 4000 nM.
In the case of `Cn1c(-c2ccc(-c3cccnc3)cc2O)nnc1C1(c2ccc(Cl)cc2)CCC1`, the results for the inhibition in vivo at 10 mg/kg with Mus musculus [1] and in the series with Mus musculus [6] were 59% and 10%, respectively. In series [2], this compound registered an EC50 of more than 30000 nM. The Activity in series [3] turned out to be 45%. Also, the half-inhibitory concentration (IC50) in series [4] was 38 nM; in series [5] it was 1 nM; in series [7], more than 4000 nM; in series [8] it was more than 4000 nM.
For the compound `Cn1c(-c2ccc(-c3cnccn3)cc2F)nnc1C1(c2ccc(Cl)cc2)CCC1`, the inhibition in vivo at 10 mg/kg with Mus musculus [1] worked out at 91%; in the series with Mus musculus [6] it was 81%. The same compound showed an EC50 in series [2] of 4800 nM. For the same compound, the Activity in series [3] was 74%. For the same compound, the 50% inhibitory concentration (IC50) in series [4] was 2.8 nM; in series [5], 1.7 nM; in series [7], more than 4000 nM; in series [8], more than 4000 nM.
As for `Cn1c(-c2ccc(-c3cnccn3)cc2OC(F)F)nnc1C1(c2ccc(Cl)cc2)CCC1`, the inhibition in vivo at 10 mg/kg with Mus musculus [1] came out at 88%; with Mus musculus [6] it was 14%. In series [2], this compound returned an EC50 of more than 30000 nM. The Activity in series [3] amounted to 45%. Further, the IC50 was 3.7 nM in series [4], 1 nM in series [5], more than 4000 nM in series [7] and more than 4000 nM in series [8].
Take `Cn1c(-c2ccc(C(N)=O)cc2C(N)=O)nnc1C1(c2ccc(Cl)cc2)CCC1`: the inhibition in vivo at 10 mg/kg was -11% with Mus musculus [1] and 0% with Mus musculus [6]. Moreover, the EC50 in series [2] is more than 30000 nM. Besides, the Activity in series [3] is -7%. Also, the IC50 in series [4] was 2.2 nM; in series [5], 150 nM; in series [7] it was more than 4000 nM; in series [8], more than 4000 nM.
